Reference: patent US20020061888A1, “Combination therapy for the prophylaxis and treatment of hyperlipidemic conditions and disorders” (priority 2000, published 2002)
Several values for one entry are separate records, joined by “and”; a condition that tells them apart may be missing. Equal values may be shown once.

System: Male beagle dogs
Experiment: Serum total cholesterol in beagle dogs (serum lipid measurements)
Format: in vivo
Conditions: for SERUM TOTAL CHOLESTEROL / TOTAL SERUM CHOLESTEROL: n = 6; for decrease in serum total cholesterol concentration: compared to vehicle; for decrease in serum total cholesterol: after four weeks, vs pretreatment
Protocol: Male beagle dogs (9-10 kg) obtained from Marshall farms were fed a normal chow diet once a day for a two hour interval and given water ad libitum. Prior to initiating treatment, the dogs were weighed and blood samples were drawn from the cephalic vein of each dog following an overnight fast to evaluate pretreatment serum total cholesterol levels at the start of the study. […] All doses were administered in gelatin capsules per os to each dog between 9:00-9:30 a.m. prior to feeding. All animals were fed between 9:30-10:00 a.m. and were allowed two hours to eat, at which time any remaining food was removed. […] Animals were dosed daily for three weeks and blood samples were taken at the end of each week after an overnight fast for comparison with pretreatment serum total cholesterol levels. Three consecutive 24 hour fecal samples were collected for each group during the last 72 hours of each week and used to measure the concentration of fecal biles acids excreted during that time period.
Blood was collected from the cephalic vein of each dog into serum separator tubes. The blood was centrifuged at 900×g for 20 minutes at room temperature and the serum decanted. All analyses were performed on a Cobas Mira Clinical Analyzer System (Roche Diagnostic Systems, Branchburg, N.J.) using Roche Diagnostic reagents for enzymatic determinations of serum cholesterol. Commercial calibrator and quality control materials were analyzed with each run to verify assay accuracy and precision. A two-tailed, paired Students t-test was used to determine the statistical significance of changes in serum total cholesterol in treated dogs compared to pretreatment values. A one-way analysis of variance (“ANOVA”) was used to compare each pair of treatment groups to determine the statistical significance of changes in serum total cholesterol.
Beagle dogs also were administered pravastatin to evaluate the monotherapeutic effect of pravastatin on serum total cholesterol.
Male beagle dogs (9-10 kg) obtained from Marshall farms were fed once a day for two hours and given water ad libitum. Prior to initiating treatment, blood samples were drawn from the cephalic vein of each dog to evaluate pretreatment total serum cholesterol levels at the start of the study.
For the dose ranging study, the dogs were assigned to one of five groups based on mean body weights and serum total cholesterol levels. Each group received one of the following dosages: (1) vehicle (empty capsule, afternoon dosing), (2) 3.0 mg/kg/day pravastatin (afternoon dosing), (3) 10 mg/kg/day pravastatin (afternoon dosing), (4) 30 mg/kg/day pravastatin (afternoon dosing), and (5) 10 mg/kg/day pravastatin (morning dosing). One capsule containing pravastatin was administered per os to each dog between 9:00-9:30 a.m. prior to feeding for the 10 mg/kg/day morning dosing group and between 2:30-3:00 p.m. for the afternoon dosing groups. All animals were fed between 9:30-10:00 a.m. and were allowed two hours to eat, at which time any remaining food was removed. […] Animals were dosed daily for four weeks and blood samples were taken at the end of each week after an overnight fast for comparison with pretreatment serum total cholesterol levels.
Following this initial four week dose-ranging study, dogs from the two groups receiving 10 mg/kg/day pravastatin (a.m. and p.m. dosing groups) were randomized into two new treatment groups based on serum total cholesterol levels to initiate the combination treatment study. […] Dosing continued in this manner for an additional four weeks (Weeks 5-8) with blood and 48-hour fecal samples collected at the end of each week for serum lipid measurements and fecal bile acid determinations, respectively.

In the case of `CC[C@H](C)C(=O)O[C@H]1C[C@H](O)C=C2C=C[C@H](C)[C@H](CC[C@@H](O)C[C@@H](O)CC(=O)O)[C@H]21` [pravastatin, Pravastatin], the “% change in serum total cholesterol compared to the pretreatment value of each group” value (shortened to “% change in serum total cholesterol”) (pravastatin 0.25 mg/kg/day, Week 1) is reported as “(+2) %”, the “SERUM TOTAL CHOLESTEROL” value (pravastatin 0.25 mg/kg/day, Week 1, mean ± SEM) is reported as 157 ± 10 mg/dL and the “% change in serum total cholesterol” value (pravastatin 0.25 mg/kg/day, Week 2) is reported as “(+3) %”. The “SERUM TOTAL CHOLESTEROL” value (pravastatin 0.25 mg/kg/day, Week 2, mean ± SEM) was 159 ± 12 mg/dL, the “% change in serum total cholesterol” value (pravastatin 0.25 mg/kg/day, Week 3) was “(0) %” and the “SERUM TOTAL CHOLESTEROL” value (pravastatin 0.25 mg/kg/day, Week 3, mean ± SEM) was 154 ± 13 mg/dL. For the same molecule, the “decrease in serum total cholesterol concentration” value (pravastatin 0.25 mg/kg/day, one week of treatment) was 2%, the “decrease in serum total cholesterol concentration” value (pravastatin 0.25 mg/kg/day, three weeks of treatment) was 0% and the “% change in serum total cholesterol” value (pravastatin 1.0 mg/kg/day, Week 1) was “(−1) %”. The “SERUM TOTAL CHOLESTEROL” value (pravastatin 1.0 mg/kg/day, Week 1, mean ± SEM) was 153 ± 11 mg/dL, the “% change in serum total cholesterol” value (pravastatin 1.0 mg/kg/day, Week 2) was “(−4) %” and the “SERUM TOTAL CHOLESTEROL” value (pravastatin 1.0 mg/kg/day, Week 2, mean ± SEM) was 149 ± 11^2 mg/dL. For the same molecule, the “% change in serum total cholesterol” value (pravastatin 1.0 mg/kg/day, Week 3) was “(−8) %”, the “SERUM TOTAL CHOLESTEROL” value (pravastatin 1.0 mg/kg/day, Week 3, mean ± SEM) was 143 ± 10^2 mg/dL and the “decrease in serum total cholesterol concentration” value (pravastatin 1.0 mg/kg/day, one week of treatment) was 1%. The “decrease in serum total cholesterol concentration” value (pravastatin 1.0 mg/kg/day, three weeks of treatment) was 8%, the “% change in serum total cholesterol” value (pravastatin 3.0 mg/kg/day pm dosing, Week 1) was “(−1) %” and the “TOTAL SERUM CHOLESTEROL” value (pravastatin 3.0 mg/kg/day pm dosing, Week 1, mean ± SEM) was 157 ± 16 mg/dL. The “% change in serum total cholesterol” value (pravastatin 3.0 mg/kg/day pm dosing, Week 2) was “(−16) %”, the “TOTAL SERUM CHOLESTEROL” value (pravastatin 3.0 mg/kg/day pm dosing, Week 2, mean ± SEM) was 133 ± 11^3 mg/dL and the “% change in serum total cholesterol” value (pravastatin 3.0 mg/kg/day pm dosing, Week 3) was “(−11) %”. For the same molecule, the “TOTAL SERUM CHOLESTEROL” value (pravastatin 3.0 mg/kg/day pm dosing, Week 3, mean ± SEM) was 140 ± 12^3 mg/dL, the “% change in serum total cholesterol” value (pravastatin 3.0 mg/kg/day pm dosing, Week 4) was “(−16) %” and the “TOTAL SERUM CHOLESTEROL” value (pravastatin 3.0 mg/kg/day pm dosing, Week 4, mean ± SEM) was 132 ± 10^3 mg/dL. The “lowering of serum total cholesterol” value (pravastatin 3 mg/kg/day, four week dose ranging study) was 16%, the “% change in serum total cholesterol” value (pravastatin 4.0 mg/kg/day, Week 1) was “(−6) %” and the “SERUM TOTAL CHOLESTEROL” value (pravastatin 4.0 mg/kg/day, Week 1, mean ± SEM) was 148 ± 10^2 mg/dL. The “% change in serum total cholesterol” value (pravastatin 4.0 mg/kg/day, Week 2) was “(−7) %”, the “SERUM TOTAL CHOLESTEROL” value (pravastatin 4.0 mg/kg/day, Week 2, mean ± SEM) was 146 ± 8 mg/dL and the “% change in serum total cholesterol” value (pravastatin 4.0 mg/kg/day, Week 3) was “(−11) %”. For the same molecule, the “SERUM TOTAL CHOLESTEROL” value (pravastatin 4.0 mg/kg/day, Week 3, mean ± SEM) was 139 ± 9^2 mg/dL, the “decrease in serum total cholesterol concentration” value (pravastatin 4.0 mg/kg/day, one week of treatment) was 6% and the “decrease in serum total cholesterol concentration” value (pravastatin 4.0 mg/kg/day, three weeks of treatment) was 11%. The “decrease in serum total cholesterol” value (pravastatin 10 mg/kg/day a.m. dosing) was 16%, the “% change in serum total cholesterol” value (pravastatin 10.0 mg/kg/day am dosing, Week 1) was “(+6) %” and the “TOTAL SERUM CHOLESTEROL” value (pravastatin 10.0 mg/kg/day am dosing, Week 1, mean ± SEM) was 164 ± 12 mg/dL. The “% change in serum total cholesterol” value (pravastatin 10.0 mg/kg/day am dosing, Week 2) was “(−13) %”, the “TOTAL SERUM CHOLESTEROL” value (pravastatin 10.0 mg/kg/day am dosing, Week 2, mean ± SEM) was 135 ± 15^3 mg/dL and the “% change in serum total cholesterol” value (pravastatin 10.0 mg/kg/day am dosing, Week 3) was “(−15) %”. For the same molecule, the “TOTAL SERUM CHOLESTEROL” value (pravastatin 10.0 mg/kg/day am dosing, Week 3, mean ± SEM) was 131 ± 10^3 mg/dL, the “% change in serum total cholesterol” value (pravastatin 10.0 mg/kg/day am dosing, Week 4) was “(−16) %” and the “TOTAL SERUM CHOLESTEROL” value (pravastatin 10.0 mg/kg/day am dosing, Week 4, mean ± SEM) was 130 ±7 mg/dL and 130 ± 7^3 mg/dL. The “decrease in serum total cholesterol” value (pravastatin 10 mg/kg/day p.m. dosing) was 21%, the “% change in serum total cholesterol” value (pravastatin 10.0 mg/kg/day pm dosing, Week 1) was “(−8) %” and the “TOTAL SERUM CHOLESTEROL” value (pravastatin 10.0 mg/kg/day pm dosing, Week 1, mean ± SEM) was 146 ± 10 mg/dL. The “% change in serum total cholesterol” value (pravastatin 10.0 mg/kg/day pm dosing, Week 2) was “(−19) %”, the “TOTAL SERUM CHOLESTEROL” value (pravastatin 10.0 mg/kg/day pm dosing, Week 2, mean ± SEM) was 129 ± 10^3 mg/dL and the “% change in serum total cholesterol” value (pravastatin 10.0 mg/kg/day pm dosing, Week 3) was “(−19) %”.
